# From patent US6737383B1, “Herbicidal oxadiazolidines” (priority 1999, dated 2004)
# Columns and labels:
# sandbur = assay: Test D sandbur; assay type: in vivo, Cenchrus echinatus; conditions: Postemergence, 0 to 100 scale
# Alexandergrass = assay: Test D Alexandergrass; assay type: in vivo, Brachiaria plantaginea; conditions: Postemergence, 0 to 100 scale
# Green foxtail [1] = assay: Test D green foxtail; assay type: in vivo; conditions: Rate 250 g/ha; Postemergence; 0 to 100 scale
# surinam grass = assay: Test D surinam grass; assay type: in vivo, Brachiaria decumbens; conditions: Postemergence, 0 to 100 scale
# Spanishneedles = assay: Test D Spanishneedles; assay type: in vivo, Bidens bipinnata; conditions: Postemergence, 0 to 100 scale
# bermuda-grass = assay: Test D bermudagrass; assay type: in vivo, Cynodon dactylon; conditions: Postemergence, 0 to 100 scale
# Green foxtail [2] = assay: Test D green foxtail; assay type: in vivo; conditions: Postemergence, 0 to 100 scale, 0 no injury, 100 complete control
# Green foxtail [3] = assay: Test D green foxtail; assay type: in vivo; conditions: Postemergence, 0 to 100 scale, 0 no injury, 100 complete control; remark: listed apart in the source
# tall mallow = assay: Test D tall mallow; assay type: in vivo, Malva sylvestris; conditions: Postemergence, 0 to 100 scale
# Johnson grass = assay: Test D Johnson grass; assay type: in vivo, Sorghum halepense; conditions: Postemergence, 0 to 100 scale
# common ragweed = assay: Test D common ragweed; assay type: in vivo, Ambrosia elatior; conditions: Postemergence, 0 to 100 scale
# Green foxtail [4] = assay: Test D green foxtail; assay type: in vivo; conditions: Postemergence, 0 to 100 scale, 0 no injury, 100 complete control; remark: listed apart in the source
# pitted morningglory = assay: Test D pitted morningglory; assay type: in vivo, Ipomoea lacunosa; conditions: Postemergence, 0 to 100 scale
# itchgrass = assay: Test D itchgrass; assay type: in vivo, Rottboellia exaltata; conditions: Postemergence, 0 to 100 scale
# guineagrass = assay: Test D guineagrass; assay type: in vivo, Panicum maximum; conditions: Postemergence, 0 to 100 scale
# common groundsel = assay: Test D common groundsel; assay type: in vivo, Senecio vulgaris; conditions: Postemergence, 0 to 100 scale
# Green foxtail [5] = assay: Test D green foxtail; assay type: in vivo; conditions: Rate 250 g/ha; Postemergence; 0 to 100 scale; remark: listed apart in the source
# common pursiane = assay: Test D common purslane; assay type: in vivo, Portulaca oleracea; conditions: Postemergence, 0 to 100 scale
# [6] = Rate 16 g/ha, 0 no injury, 100 complete control
# [7] = Rate 32 g/ha, 0 no injury, 100 complete control
# [8] = Rate 64 g/ha, 0 no injury, 100 complete control
# [9] = Rate 125 g/ha, 0 no injury, 100 complete control
structure (smiles),measurement,setting,value
COCC(C)n1c(=O)on(C(=O)N(c2ccc(F)cc2F)C(C)C)c1=O (stereo not drawn) [Compound 357],"Plant response rating, Sandbur",sandbur; [6],0
same,"Plant response rating, Sandbur",sandbur; [7],0
same,Sandbur plant response rating,sandbur; [8],0
same,Sandbur plant response rating,sandbur; [9],0
same,"Plant response rating, Sandbur",sandbur; Rate 250 g/ha,100
same,"Plant response rating, Alexandergrass",Alexandergrass; [6],0
same,"Plant response rating, Alexandergrass",Alexandergrass; [7],20
same,"Plant response rating, Alexandergrass",Alexandergrass; [8],100
same,"Plant response rating, Alexandergrass",Alexandergrass; [9],100
same,"Plant response rating, Alexandergrass",Alexandergrass; Rate 250 g/ha,100
same,"Plant response rating, Green foxtail",Green foxtail [1],100
same,"Plant response rating, Surinam grass",surinam grass; [6],0
same,"Plant response rating, Surinam grass",surinam grass; [7],20
same,Surinam grass plant response rating,surinam grass; [8],80
same,Surinam grass plant response rating,surinam grass; [9],100
same,"Plant response rating, Surinam grass",surinam grass; Rate 250 g/ha,100
same,"Plant response rating, Spanishneedles",Spanishneedles; [6],10
same,"Plant response rating, Spanishneedles",Spanishneedles; [7],10
same,Spanishneedles plant response rating,Spanishneedles; [8],10
same,Spanishneedles plant response rating,Spanishneedles; [9],10
same,"Plant response rating, Spanishneedles",Spanishneedles; Rate 250 g/ha,20
same,"Plant response rating, Bermudagrass",bermuda-grass; [6],90
same,"Plant response rating, Bermudagrass",bermuda-grass; [7],100
same,"Plant response rating, Bermudagrass",bermuda-grass; [8],100
same,"Plant response rating, Bermudagrass",bermuda-grass; [9],100
same,"Plant response rating, Bermudagrass",bermuda-grass; Rate 250 g/ha,100
same,"Plant response rating, Green foxtail",Green foxtail [2]; Rate 16 g/ha,10
same,"Plant response rating, Green foxtail",Green foxtail [2]; Rate 32 g/ha,30
same,Green foxtail plant response rating,Green foxtail [3]; Rate 64 g/ha,100
same,Green foxtail plant response rating,Green foxtail [3]; Rate 125 g/ha,100
same,"Plant response rating, Tall Mallow",tall mallow; [6],10
same,"Plant response rating, Tall Mallow",tall mallow; [7],10
same,Tall Mallow plant response rating,tall mallow; [8],20
same,Tall Mallow plant response rating,tall mallow; [9],50
same,"Plant response rating, Tall Mallow",tall mallow; Rate 250 g/ha,100
same,"Plant response rating, Johnsongrass",Johnson grass; [6],0
same,"Plant response rating, Johnsongrass",Johnson grass; [7],0
same,"Plant response rating, Johnsongrass",Johnson grass; [8],0
same,"Plant response rating, Johnsongrass",Johnson grass; [9],60
same,"Plant response rating, Johnsongrass",Johnson grass; Rate 250 g/ha,90
same,"Plant response rating, C. ragweed",common ragweed; [6],0
same,"Plant response rating, C. ragweed",common ragweed; [8],0
same,"Plant response rating, C. ragweed",common ragweed; [9],0
same,"Plant response rating, C. ragweed",common ragweed; Rate 250 g/ha,50
same,"Plant response rating, Green foxtail",Green foxtail [4]; Rate 64 g/ha,100
same,"Plant response rating, Green foxtail",Green foxtail [4]; Rate 125 g/ha,100
same,"Plant response rating, P. morninglory",pitted morningglory; [6],0
same,"Plant response rating, P. morninglory",pitted morningglory; [7],0
same,"Plant response rating, P. morninglory",pitted morningglory; [8],0
same,"Plant response rating, P. morninglory",pitted morningglory; [9],0
same,"Plant response rating, P. morninglory",pitted morningglory; Rate 250 g/ha,0
same,"Plant response rating, Itchgrass",itchgrass; [6],0
same,"Plant response rating, Itchgrass",itchgrass; [7],0
same,"Plant response rating, Itchgrass",itchgrass; [8],0
same,"Plant response rating, Itchgrass",itchgrass; [9],30
same,"Plant response rating, Itchgrass",itchgrass; Rate 250 g/ha,50
same,"Plant response rating, Guineagrass",guineagrass; [6],0
same,"Plant response rating, Guineagrass",guineagrass; [7],0
same,Guineagrass plant response rating,guineagrass; [8],60
same,"Plant response rating, Guineagrass",guineagrass; [8],20
same,"Plant response rating, Guineagrass",guineagrass; [9],70
same,"Plant response rating, Guineagrass",guineagrass; Rate 250 g/ha,100
same,"Plant response rating, Com. groundsel",common groundsel; [7],40
same,"Plant response rating, Com. groundsel",common groundsel; [8],100
same,"Plant response rating, Com. groundsel",common groundsel; [9],100
same,"Plant response rating, Com. groundsel",common groundsel; Rate 250 g/ha,100
same,"Plant response rating, Green foxtail",Green foxtail [5],100
same,"Plant response rating, C. purslane",common pursiane; [6],0
same,"Plant response rating, C. purslane",common pursiane; [7],0
same,"Plant response rating, C. purslane",common pursiane; [8],0
same,"Plant response rating, C. purslane",common pursiane; [9],0
same,"Plant response rating, C. purslane",common pursiane; Rate 250 g/ha,0
